Measurements reported in patent publication US5141929A, “Lipophilic ethers and/or esters of D-desosamine and their compositions as anti-bacteria and anti-fungus agents” (Societe Anonyme dite: L'Oreal, priority 1988, dated 1992).
Converted amounts (≈) assume the structure as drawn. Like-named read-outs stand apart in the source and are kept apart here.

What was measured:
[1] = tested on: propionibacterium Acnes P37; experiment: MIC by dilution method, Propionibacterium acnes strain P37; format: cell-based; conditions: for MIC: Cutibacterium acnes
Text: (§1) The activity of the esters and/or ethers of D-desosamine has been studied by the dilution method to determine the minimum inhibiting concentration (MIC) This method is described and employed by G.A. Denys et al, Antimicrobial Agents and Chemotherapy (1983) 23, 335-337 and J.J. Leyden et al, J. Am. Acad. Dermatol. (1983) 8 (1) 41-5, by using as the procionibacterium acnes strain, strain P37 furnished by Cunliffe and Holland.
This P37 strain has been the object of studies described in the following publications:
(§2) The minimum inhibiting concentration (MIC), expressed in μg/ml of the esters and/or ethers of D-desosamine tested vis-a-vis strains of propionibacterium Acnes P37, P37E⊕ and P37E⊖ and staphilococcus epidermidis ATCC 12228, is reported in the following Table I.

P37 E⊕ (sensitive) = experiment: MIC by dilution method, erythromycin-sensitive P. acnes strain P37 E⊕; format: cell-based, propionibacterium acnes; conditions: for MIC: Cutibacterium acnes
Text: as §1
(§3) On the other hand, after 8 successive sub-cultures in the same medium (RCM* 19/20, DMSO […] by volume) with the view of obtaining a progressive stabilization of this strain in this medium, a progressive resistance to erythromycin was manifested in the following form:
(§4) after spreading a standardized inoculum (DO=1.8 at 450 nm) on a gelose medium (RCM+furazolidone), in a Petri dish, a 9 mm diameter disc is deposited at its center. On the disc, 50 μg of erythromycin (in solution in DMSO) are deposited.
(§5) After 6 days at 36° C. in an anerobic medium (GAS-PAK, B.B.L. system) an inhibition zone of the growth of the strain is clearly visible (total diameter=42 mm), the majority of the colonies being situated at the periphery of the inhibition zone.
(§6) The two types of colonies are then retained by stripping of the gelose medium (sterilized platinum loop):
(§7) (2) at 1 cm beyond the periphery of the inhibition zone, there are stripped off strains called P37 E⊕.
(§8) After isolation and culturing, the P37 E⊕ and P37 E⊖ strains effectively show very different sensitivities to erythromycin as illustrated by the following respective MIC values.
as §2

[2] = tested on: staphilococcus epidermidis ATCC 12228; experiment: MIC by dilution method, staphilococcus epidermidis ATCC 12228; format: cell-based; conditions: Table I; for MIC: read-out: minimum inhibiting concentration (MIC), ATCC 12228
Text: as §1, §2

P37 E⊖ (resistant) = experiment: MIC by dilution method, erythromycin-resistant P. acnes strain P37 E⊖; format: cell-based, propionibacterium acnes; conditions: for MIC: Cutibacterium acnes
Text: as §1, §3, §4, §5, §6
(§9) (1) at the interior of the inhibition zone there are stripped off strains, called P37 E⊖ by reason of their apparent resistance to erythromycin.
as §8, §2

P37 [3] = experiment: IC 50 (50% survivors at constant culturing time), strain P37; format: cell-based, propionibacterium acnes; conditions: Cutibacterium acnes, read-out: IC 50 (inhibiting concentration at 50%), P37
Text: (§10) This phenomenon is confirmed by the study of the IC 50 (inhibiting concentration at 50%) which represents the concentration of erythromycin where, at a constant culturing time, 50% survivors among the population are found.

P37 E⊕ = experiment: IC 50 (50% survivors at constant culturing time), strain P37 E⊕; format: cell-based, propionibacterium acnes; conditions: Cutibacterium acnes, read-out: IC 50 (inhibiting concentration at 50%), P37 E⊕
Text: as §7, §10

P37 E⊖ = experiment: IC 50 (50% survivors at constant culturing time), strain P37 E⊖; format: cell-based, propionibacterium acnes; conditions: Cutibacterium acnes, read-out: IC 50 (inhibiting concentration at 50%), P37 E⊖
Text: as §9, §10

P37 [4] = experiment: Disc diffusion inhibition zone on gelose medium, sub-cultured strain P37; format: cell-based, propionibacterium acnes; conditions: Cutibacterium acnes, 144 h, read-out: inhibition zone of the growth of the strain, total diameter
Description: as §3, §4, §5

[5] = ACNESP37, Table I, P. acnes P37, read-out: minimum inhibiting concentration (MIC), P37
[6] = Table I, erythromycin-sensitive, read-out: minimum inhibiting concentration (MIC), P37 E⊕ (sensitive)
[7] = read-out: minimum inhibiting concentration (MIC), P37 E⊖ (resistant)

| Molecule | MIC [1, 5] [µg/mL] | MIC (P37 E⊕ (sensitive); [6]) [µg/mL] | MIC [2] [µg/mL] | MIC (P37 E⊖ (resistant); [7]) [µg/mL] | other results |
| --- | --- | --- | --- | --- | --- |
| CCCCC/C=C\C/C=C\CCCCCCCC(=O)O[C@H]1[C@@H](OCCCC)O[C@H](C)C[C@@H]1N(C)C [Compound 7, O-linoleoyl-2-O-butyl-1-α-D-desosamine] | 0.15 (≈ 0.304 µM) | 1.1 (≈ 2.23 µM) | 1.1 (≈ 2.23 µM) | – | – |
| CCCCCCCCCCCC(=O)O[C@H]1[C@@H](OC)O[C@H](C)C[C@@H]1N(C)C [Compound 5, O-dodecanoyl-2-O-methyl-1-α-D-desosamine] | 50 (≈ 135 µM) | 50 (≈ 135 µM) | 3.2 (≈ 8.61 µM) | – | – |
| CCCCCCCCCCCC(=O)O[C@H]1C(OCCCC)O[C@H](C)C[C@@H]1N(C)C (stereo partly drawn) [Compound 2, O-dodecanoyl-2-O-butyl-1-α,β-D-desosamine] | 0.4 (≈ 0.967 µM) | 0.6 (≈ 1.45 µM) | 3.5 (≈ 8.46 µM) | 0.9 (≈ 2.18 µM) | – |
| CCCCCCCCCCCO[C@H]1C(OCCCCCCCCCC)O[C@H](C)C[C@@H]1N(C)C (some centres unmarked) [Compound 11] | 4 (≈ 8.51 µM) | 0.7 (≈ 1.49 µM) | 0.7 (≈ 1.49 µM) | 0.8 (≈ 1.7 µM) | – |
| CCCCCCCCCCCCC(CCCCCCCCCC)CO[C@H]1C(OCCCC)O[C@H](C)C[C@@H]1N(C)C (stereo partly drawn) [Compound 17, O-(2-decyl)-tetradecyl-2-O-butyl-1-α,β-D-desosamine] | 12.5 (≈ 22 µM) | 11 (≈ 19.4 µM) | – | 6 (≈ 10.6 µM) | – |
| CCCCCCCCCCCCCCCCCCO[C@H]1C(OCCCC)O[C@H](C)C[C@@H]1N(C)C (stereo partly drawn) [Compound 8, O-octadecyl-2-O-butyl-1-α,β-D-desosamine] | 0.25 (≈ 0.517 µM) | < 0.03 | 2.2 (≈ 4.55 µM) | 8.8 (≈ 18.2 µM) | – |
| CC[C@H]1OC(=O)[C@H](C)[C@@H](O[C@H]2C[C@@](C)(OC)[C@@H](O)[C@H](C)O2)[C@H](C)[C@@H](O[C@@H]2O[C@H](C)C[C@H](N(C)C)[C@H]2O)[C@](C)(O)C[C@@H](C)C(=O)[C@H](C)[C@@H](O)[C@]1(C)O [erythromycin] | – | – | – | – | MIC ([1]; ACNESP37, read-out: minimum inhibiting concentration (MIC), P37): 0.78 µg/mL (≈ 1.06 µM); MIC (P37 E⊕ (sensitive); read-out: MIC, P37 E⊕): 0.78 µg/mL (≈ 1.06 µM); MIC (P37 E⊖ (resistant); read-out: MIC, P37 E⊖): 50 µg/mL (≈ 68.1 µM); IC50 (P37 [3]): 50 µg/mL (≈ 68.1 µM); IC50 (P37 E⊕): 5 µg/mL (≈ 6.81 µM); IC50 (P37 E⊖): 100 µg/mL (≈ 136 µM); zone of inhibition at 50 µg/disc (P37 [4]): 42 mm |
| CCCCCCCCCCCO[C@H]1[C@H](OCCCCCCCCCC)O[C@H](C)C[C@@H]1N(C)C [Compound 13] | 1 (≈ 2.13 µM) | 0.5 (≈ 1.06 µM) | 0.06 (≈ 0.128 µM) | 0.02 (≈ 0.0426 µM) | – |
| CCCCCCCCCCCCCCCCCCO[C@H]1[C@H](OCCCC)O[C@H](C)C[C@@H]1N(C)C [Compound 10] | 3.12 (≈ 6.45 µM) | 0.09 (≈ 0.186 µM) | 0.04 (≈ 0.0827 µM) | 1.56 (≈ 3.22 µM) | – |
| CCCCCCCCO[C@H]1O[C@H](C)C[C@H](N(C)C)[C@H]1OCCCCCCCC [Compound 15, di-O-octyl-1,2-α-D-desosamine] | 1.8 (≈ 4.5 µM) | 1 (≈ 2.5 µM) | 0.3 (≈ 0.751 µM) | 0.4 (≈ 1 µM) | – |
| CCCCCCCCCCCC(=O)O[C@H]1[C@H](OCCCC)O[C@H](C)C[C@@H]1N(C)C [Compound 3, O-dodecanoyl-2-O-butyl-1-β-D-desosamine] | 15 (≈ 36.3 µM) | 0.1 (≈ 0.242 µM) | – | 1.9 (≈ 4.59 µM) | – |
| CCCCCCCCO[C@@H]1O[C@H](C)C[C@H](N(C)C)[C@H]1OCCCCCCCC [Compound 16, di-O-octyl-1,2-β-D-desosamine] | 0.7 (≈ 1.75 µM) | 0.3 (≈ 0.751 µM) | 1.2 (≈ 3 µM) | 0.15 (≈ 0.375 µM) | – |
| CCCCCCCCCC(=O)O[C@H]1C(OCCCC)O[C@H](C)C[C@@H]1N(C)C (stereo partly drawn) [Compound 1, O-decanoyl-2-O-butyl-1-α,β-D-desosamine] | 9 (≈ 23.3 µM) | 9 (≈ 23.3 µM) | 5 (≈ 13 µM) | 3.2 (≈ 8.3 µM) | – |
| CCCCCCCCCCCCCCCCCCO[C@H]1[C@@H](OCCCC)O[C@H](C)C[C@@H]1N(C)C [Compound 9, O-octadecyl-2-O-butyl-1-α-D-desosamine] | 0.1 (≈ 0.207 µM) | – | 0.8 (≈ 1.65 µM) | 27.5 (≈ 56.8 µM) | MIC (P37 E⊕ (sensitive); read-out: minimum inhibiting concentration (MIC), P37 E⊕ (sensitive)): 27.5 µg/mL (≈ 56.8 µM) |
| O-dodecanoyl-2'-erythralosamine [Compound 18] | – | – | – | – | minimum inhibiting concentration (MIC), P37 ([1]; Table I, P. acnes P37): 0.4 µg/mL; minimum inhibiting concentration (MIC), P37 E⊕ (sensitive) (P37 E⊕ (sensitive); Table I, erythromycin-sensitive): 12.5 µg/mL; minimum inhibiting concentration (MIC), P37 E⊖ (resistant) (P37 E⊖ (resistant); Table I, erythromycin-resistant): 0.4 µg/mL; minimum inhibiting concentration (MIC), ATCC 12228 [2]: 1.5 µg/mL |
| CCCCCCCCCCCO[C@H]1[C@@H](OCCCCCCCCCC)O[C@H](C)C[C@@H]1N(C)C [Compound 12] | 1.8 (≈ 3.83 µM) | 1 (≈ 2.13 µM) | 0.8 (≈ 1.7 µM) | 0.8 (≈ 1.7 µM) | – |
| CCCCCCCCOC1O[C@H](C)C[C@H](N(C)C)[C@H]1OCCCCCCCC (stereo partly drawn) [Compound 14, di-O-octyl-1,2-α,β-D-desosamine] | 0.5 (≈ 1.25 µM) | 0.6 (≈ 1.5 µM) | 0.5 (≈ 1.25 µM) | 0.1 (≈ 0.25 µM) | – |
| CCCCCCCCCCCC(=O)O[C@H]1C(OC)O[C@H](C)C[C@@H]1N(C)C (stereo partly drawn) [Compound 4, O-dodecanoyl-2-O-methyl-1-α,β-D-desosamine] | 25 (≈ 67.3 µM) | 15 (≈ 40.4 µM) | 3.8 (≈ 10.2 µM) | – | – |
| CCCCC/C=C\C/C=C\CCCCCCCC(=O)O[C@H]1C(OCCCC)O[C@H](C)C[C@@H]1N(C)C (stereo partly drawn) [Compound 6, O-linoleoyl-2-O-butyl-1-α,β-D-desosamine] | 0.4 (≈ 0.81 µM) | 0.7 (≈ 1.42 µM) | 0.2 (≈ 0.405 µM) | 0.8 (≈ 1.62 µM) | – |
